Experimental data: patent US20070219159A1, “CYCLODEXTRIN COMPOSITIONS AND METHODS OF TREATING VIRAL INFECTIONS” (priority 2002, published 2007)
Where two headings read alike, the source gives them in different places.

What was measured:
[1] = test system: HCV; assay: In vitro anti-HCV assay in HCV RNA-replicating cell line AVA5; type: cell-based
Method: The antiviral activity of test compounds were assayed in the stably HCV RNA-replicating cell line. AVA5, derived by transfection of the human hepatoblastoma cell line, Huh^7 (Blight et al., 2000). Experimental drugs were added to dividing cultures once daily for three days. Media was changed with each addition of compound. Cultures generally started the assays at 50% confluence and reached confluence during the last day of treatment. HCV RNA and cellular β-actin RNA levels were assessed 24 hours after the last dose of compound using dot blot hybridization. Assays were conducted using a single dose of test compound (in triplicate cultures).
Both HCV and β-actin RNA levels in the treated cultures were expressed as a percentage of the mean levels of RNA detected in untreated cultures. β-actin RNA levels were used both as a measure of toxicity, and to normalize the amount of cellular RNA in each sample. A level of 30% or less HCV RNA (relative to control cultures) was considered to be a positive antiviral effect, and a level of 50% or less β-actin RNA (relative to control cultures) is considered to be a cytotoxic effect.
Dividing cultures of AVAB cells were treated once daily for three days (media was changed with each addition of compound) with 4 concentrations of test compounds (3 cultures per concentration). A total of 6 untreated control cultures, and triplicate cultures treated with 10, 3, and 1 IU/ml α-interferon (active antiviral with no cytotoxicity), and 100, 10, and 1 μM ribavir ([…]) served as controls. HCV RNA and cellular β-actin FNA levels were assessed 24 hours after the last dose of compound using dot blot hybridization. β-actin RNA levels were used to normalize the amount of cellular RNA in each sample.
Toxicity analyses were performed on separate plates from those used for the antiviral assays. Cells for the toxicity analyses were cultured and treated with test compounds with the same schedule and under identical culture conditions used for the antiviral evaluations. Each compound was tested at 4 concentrations, each in triplicate cultures. Uptake of neutral red dye was used to determine the relative level of toxicity 24 hours following the last treatment. The absorbance of internalized dye at […] (A510) was used for the quantitative analysis. Values in test cultures were compared to 9 cultures of untreated cells maintained on the same plate as the test cultures.
Assays similar to those described above were conducted.

[2] = test system: West Nile; assay: In vitro antiviral screening (Table 1), West Nile
[3] = test system: EBV
[4] = test system: dlsptk (an ACV-resistant, tk deletion mutant of HSV-1); type: cell-based; conditions: MOI 10, 20 μM (4.5 μg/ml) ACV or 6.4 mg/ml β-CD for 24 hours
[5] = test system: Vero cells; assay: Cell viability by LDH release assay; type: cell-based; conditions: acyclovir 400 μg/ml, 24 and 48 hours, Vero cells
Method: FIG. 3 depicts the effects of ACV alone (400 μg/ml) and β-CD alone (8 mg/ml) on the viability of Vero cells as monitored by the LDH release assay after 24 hours of treatments (A); and after 48 hours of treatments (B). All data represents means+SD of two separate experiments.
Cell viability assay. Cell viability was determined fluorometrically by estimating the release of LDH into the media (Moran and Schnellman, 1996). LDH activity was based on the reduction of pyruvate to lactate. The concomitant oxidation of NADH results in a decrease in the fluorescence emission at 450 nm with excitation wavelength 355 nm, and the rate of disappearance of NADH is indicative of LDH activity.
To study the effects of formulations on viability of preformed monolayers, 3 to 4×10^6 Vero cells were added to 1× MEM-5% FBS in T75 flasks. […] Used media were replaced with 15 ml of treatment media, containing 5× MEM-FBS diluted to 1× with water (control), acyclovir stock (400 μg/ml), or β-CD stock (8 mg/ml in water). […]
Reaction solution was made fresh for each experiment by mixing 0.4 ml of 16.2 mM pyruvate with 10 ml of 0.2 mM NADH in phosphate buffer (pH 7.5). […] The amount of LDH calculated for either condition was then compared with and expressed as a percentage of the total LDH present.
Used media were replaced with 15 ml/flask or 2.5 ml/well of treatment media, containing 5× MEM-FBS diluted to 1× with water (control), and […]CD stock. […] Live cells are distinguished by the presence of intracellular esterase activity, as determined by the enzymatic conversion of calcein-AM (nonfluorescent) to calcein (green fluorescence). EthD-1 enters cells with damaged cell membranes and binds to nucleic acids producing red fluorescence to identify dead cells. […] For LDH assays, cells were trypsinized, resuspended in fresh 1× medium, kept at 37° C.-5% CO2 atmosphere, and total LDH present in cells and medium was determined after lysing the cells with 350 μM digitonin. The amount of LDH calculated for either condition was then compared with and expressed as a percentage of the total LDH present. […]

[6] = test system: HSV-1 strain KOS1.1; type: cell-based
[7] = test system: Measles
[8] = test system: Resp syncytial
[9] = test system: HSV-2; conditions: in general 1000-fold less drug than Examples 1-6 and 10
[10] = test system: Pichinde
[11] = test system: HHV-7
[12] = test system: RSV
[13] = test system: Cowpox
[14] = test system: HCMV
[15] = test system: HRV
[16] = test system: VEE
[17] = test system: Punta Toro
[18] = test system: VZV
[19] = test system: Flu A
[20] = test system: MV
[21] = test system: HSV-1; conditions: in general 1000-fold less drug than Examples 1-6 and 10
[22] = test system: MCMV
[23] = test system: HHV-6
[24] = test system: Yellow fever
[25] = test system: Rhino
[26] = test system: Ad
[27] = test system: PIV
[28] = test system: Flu B
[29] = test system: Vaccinia

Row | Compound | SI = CC50/EC50 [2] | S.I. for HCV [1] | SI = CC50/EC50 [7] | SI = CC50/EC50 [8] | SI = CC50/EC50 [9] | SI = CC50/EC50 [10] | SI = CC50/EC50 [11] | SI = CC50/EC50 [12] | SI = CC50/EC50 [13] | SI = CC50/EC50 [14] | SI = CC50/EC50 [15] | SI = CC50/EC50 [16] | SI = CC50/EC50 [17] | SI = CC50/EC50 [18] | SI = CC50/EC50 [19] | SI = CC50/EC50 [20] | SI = CC50/EC50 [21] | SI = CC50/EC50 [22] | SI = CC50/EC50 [23] | SI = CC50/EC50 [24] | other results
1 | α-interferon | – | – | – | – | – | – | – | – | – | – | – | – | – | – | – | – | – | – | – | – | approximate EC90 ([1]; positive antiviral control, no cytotoxicity): ~10 IU/ml
2 | hydroxypropyl γ-cyclodextrin [HPGCD] | 0 | 1.39 | – | – | – | – | – | – | – | – | – | – | – | – | – | – | – | – | – | – | SI = CC50/EC50, value in parenthesis calculated by DNA hybridization ([3]; DNA hybridization): 6.2
3 | Nc1nc2c(ncn2COCCO)c(=O)[nH]1 [ACV, acyclovir, reference compound] | – | – | – | – | – | – | – | – | – | – | – | – | – | – | – | – | – | – | – | – | effect on yield of acyclovir-resistant dlsptk virus (FIG. 2) [4]: no activity; effect on yield of acyclovir-resistant dlsptk virus (FIG. 2) ([4]; listed as acyclovir): not of the acyclovir -resistant mutant; drug-related cell killing [5]: no drug-related cell killing; reduction of KOS1.1 yield at 24 hours ([6]; 4.5 μg/ml ACV, MOI 10, post-infection treatment): 10^2 fold; yield of cell-free and cell-associated virus ([6]; 24 hours post-infection, MOI 50, BCD 7.2 mg/ml, ACV 400 μg/ml or both, pre, during and post infection treatment (FIG. 1)): markedly decreased; effect on yield of acyclovir-sensitive HSV KOS1.1 (FIG. 2) ([6]; MOI 10, 20 μM ACV or 6.4 mg/ml β-CD for 24 hours): able to lower the yield
4 | hydroxypropyl α-cyclodextrin [HPACD] | 0 | 0.97 | – | – | – | – | – | – | – | – | – | – | – | – | – | – | – | – | – | – | –
5 | CC(O)COC[C@H]1O[C@@H]2O[C@H]3[C@H](O)[C@@H](O)[C@@H](O[C@H]4[C@H](O)[C@@H](O)[C@@H](O[C@H]5[C@H](O)[C@@H](O)[C@@H](O[C@H]6[C@H](O)[C@@H](O)[C@@H](O[C@H]7[C@H](O)[C@@H](O)[C@@H](O[C@H]8[C@H](O)[C@@H](O)[C@@H](O[C@H]1[C@H](O)[C@H]2O)O[C@@H]8COCC(C)O)O[C@@H]7COCC(C)O)O[C@@H]6COCC(C)O)O[C@@H]5COCC(C)O)O[C@@H]4COCC(C)O)O[C@@H]3COCC(C)O (stereo partly drawn) [HPBCD, hydroxypropyl β-cyclodextrin] | 0 | 1.26 | 0 | 0 | 0 | 0 | 0 | 0 | 0 | 0 | 0 | 0 | 0 | 0 | 0 | 0 | 0 | 0 | 0 | 0 | SI = CC50/EC50 [25]: 0; SI = CC50/EC50 [26]: 0; SI = CC50/EC50 [27]: 0; SI = CC50/EC50 [28]: 0; SI = CC50/EC50 [29]: 0
6 | OC[C@H]1O[C@@H]2O[C@H]3[C@H](O)[C@@H](O)[C@@H](O[C@H]4[C@H](O)[C@@H](O)[C@@H](O[C@H]5[C@H](O)[C@@H](O)[C@@H](O[C@H]6[C@H](O)[C@@H](O)[C@@H](O[C@H]7[C@H](O)[C@@H](O)[C@@H](O[C@H]8[C@H](O)[C@@H](O)[C@@H](O[C@H]9[C@H](O)[C@@H](O)[C@@H](O[C@H]1[C@H](O)[C@H]2O)O[C@@H]9CO)O[C@@H]8CO)O[C@@H]7CO)O[C@@H]6CO)O[C@@H]5CO)O[C@@H]4CO)O[C@@H]3CO [GCD, γ-cyclodextrin] | 0 | 1.04 | 0 | 0 | 0 | 0 | 0 | 0 | 0 | 0 | 0 | 0 | 0 | 0 | 0 | 0 | 0 | 0 | 0 | 0 | SI = CC50/EC50 [25]: 0; SI = CC50/EC50 [26]: 0; SI = CC50/EC50 [27]: 0; SI = CC50/EC50 [3]: 0; SI = CC50/EC50 [28]: 0; SI = CC50/EC50 [29]: 0
